Measurements: article PMC5995905, “Confirmation of high-throughput screening data and novel mechanistic insights into VDR-xenobiotic interactions by orthogonal assays” (Scientific Reports, 2018)
“And” between values parts separate entries of the source, which are not always exact repeats. Identical values can stand only once. “Also recorded” adds a separate entry of the source. Like-named read-outs stand apart in the source and are kept apart here.

Experiments:
VDR:NCoR = biological target: T1, VDR:NCoR (Homo sapiens, UniProt P11473); assay: Mammalian 2-hybrid assay, recruitment of corepressor NCoR by VDR, Cos7 cells
T1 sequence (P11473 1-427): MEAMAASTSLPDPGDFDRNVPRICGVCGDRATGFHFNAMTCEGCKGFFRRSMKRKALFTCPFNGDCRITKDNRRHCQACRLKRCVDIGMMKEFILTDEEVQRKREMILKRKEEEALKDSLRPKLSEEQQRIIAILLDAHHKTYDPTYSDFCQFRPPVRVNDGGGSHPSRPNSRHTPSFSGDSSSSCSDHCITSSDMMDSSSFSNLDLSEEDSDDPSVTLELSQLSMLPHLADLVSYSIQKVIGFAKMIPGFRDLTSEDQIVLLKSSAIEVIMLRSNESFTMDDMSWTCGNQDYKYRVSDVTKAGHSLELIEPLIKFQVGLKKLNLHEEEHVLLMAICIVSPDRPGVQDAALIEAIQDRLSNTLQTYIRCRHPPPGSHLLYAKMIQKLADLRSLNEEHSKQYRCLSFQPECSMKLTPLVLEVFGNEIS

[1] = biological target: T2, VDR:RXR, VDR:SRC-1 and VDR:NCoR interactions (Homo sapiens, UniProt P11473); assay: Mammalian 2-hybrid assay, summary in words of VDR coregulator interactions; assay type: cell-based
T2 sequence (P11473 1-427): T1 sequence (P11473 1-427)

[2] = biological target: human VDR ligand-binding domain; set-up: method as in PMID 21543282; details: read-out: Tox21 IC 50, cited from earlier work
human VDR [3] = biological target: T3, human VDR (Homo sapiens, UniProt P11473); assay: Transient transactivation assay (CYP24-Luc), antagonist mode with 3 nM 1,25D3, HEK293T cells; assay type: cell-based; details: for IC50: read-out: Derived IC 50 (Transient transactivation assay)
T3 sequence (P11473 1-427): T1 sequence (P11473 1-427)

VDR:RXRα = biological target: T4, VDR:RXRα (Homo sapiens, UniProt P11473); assay: Mammalian 2-hybrid assay, recruitment of RXRα by VDR, Cos7 cells
T4 sequence (P11473 1-427): T1 sequence (P11473 1-427)

VDR:SRC-1 = VDR:SRC-1 (Homo sapiens, UniProt P11473); assay: Mammalian 2-hybrid assay, recruitment of coactivator SRC-1 by VDR, Cos7 cells
human VDR [4] = biological target: T3, human VDR; assay: Transient transactivation assay (CYP24-Luc), agonist mode, HEK293T cells
[5] = biological target: human VDR ligand-binding domain; set-up: method as in PMID 21543282; details: agonist mode, cited from earlier work; for AC50: Tox21 qHTS data set, * = range of values
human VDR [6] = biological target: T3, human VDR
[7] = agonists, orthogonal transient transactivation assay, HEK293T cells
[8] = top asymptote of Hill or Gain-Loss model, maximum response
[9] = agonists, -RXR (empty pSG5), percentage of vitamin D3, conc. in Fig 5: ergocalciferol 60, lithocholic acid 50, calcipotriol 0.05, ethylphenol compound 40, 9 aminoacridine 50, tamoxifen citrate 20 μM
[10] = AC50 (μM), experimental AC50 as listed in Fig 4a, agonists
[11] = Derived AC50 (Transient transactivation assay), agonist mode, HEK293T cells, CYP24A1-Luc

[Cl][Cd][Cl] [Cadmium chloride]
Fold Change (pMNCoR + EpSG5) (VDR:NCoR): 1.1
pattern of change of 1,25D3 induced VDR:coregulator interaction [1]: enhanced recruitment of VDR:RXR and VDR:SRC-1 in both the presence and absence of co-expressed coregulators
IC50 [2]: 0.171 µM
Activity (human VDR [3]): Active
Derived Efficacy (fold inhibition) (human VDR [3]): 44.5165 fold inhibition
IC50 (human VDR [3]): 0.38 µM
% Induction (pMRXRα + EpSG5) (VDR:RXRα): 175

Cadmium acetate dihydrate
pattern of change of 1,25D3 induced VDR:coregulator interaction [1]: enhanced the interaction between VDR:RXR only in the presence of co transfected SRC-1
% Induction (pMSRC-1NR + RXRα) (VDR:SRC-1): 46.7
% Induction, pMSRC-1NR + EpSG5 (VDR:SRC-1): 51.7
IC50 [2]: 0.271 µM
Activity (human VDR [3]): Active
Derived Efficacy (fold inhibition) (human VDR [3]): 20.5478 fold inhibition
% Induction (pMRXRα + SRC- 1) (VDR:RXRα): 165.6

CC(C)C[C@H](NC(=O)[C@H](CCc1ccccc1)NC(=O)CN1CCOCC1)C(=O)N[C@@H](Cc1ccccc1)C(=O)N[C@@H](CC(C)C)C(=O)[C@@]1(C)CO1 [Carfizomib, reference compound]
% Induction (pMSRC-1NR + RXRα) (VDR:SRC-1; antagonists with 1,25D3, +RXR, percentage of vitamin D3, conc. in Fig 6: Cd chloride 12, dibutyltin dichloride 1, K dicyanoaurate 6, proscillaridin, aristolochic acid, carfizomib 12 μM): 296%
IC50 ([2]; antagonist mode, Tox21 qHTS data set): 0.748 µM
Activity (human VDR [4]; [7]): very weak agonist activity
Activity (human VDR [3]; antagonists, transient transactivation assay in the presence of 3 nM 1,25D3): Active
Activity (human VDR [3]; antagonists, transient transactivation assay in the presence of 3 nM 1,25D3, listed as carfizomib): moderate to marked synergistic activity
IC50 (human VDR [3]; inhibition of 3 nM 1,25D3-induced response, HEK293T cells, unit given in Fig 3 legend): 0.53 µM and 0.538 µM
Derived Efficacy (fold inhibition) (human VDR [3]; [8]): 80.6485 fold inhibition
% Induction (pMRXRα + EpSG5) (VDR:RXRα; antagonists with 1,25D3, -SRC-1, percentage of vitamin D3, conc. in Fig 6: phenylarsine oxide 0.37, dibutyltin dichloride 1, K dicyanoaurate 6, aristolochic acid, carfizomib 12, menadiol 3 μM): 1908.1%

CN1CCC(Nc2ncc3ncnc(Nc4ccc(F)c(Cl)c4)c3n2)CC1.Cl.Cl [Falnidamol dihydrochloride]
pattern of VDR:coregulator interaction facilitated by the ligand [1]: induced recruitment of RXR both in the presence and absence of co-transfected SRC-1
Activity (human VDR [4]): consistently failed to exhibit any concentration response interactions; also recorded: Inactive
AC50 [5]: 3.3 µM
activity in the Tox21 qHTS data set [5]: active
% Induction (pMRXRα + EpSG5) (VDR:RXRα): 5.3
% Induction (pMRXRα + SRC- 1) (VDR:RXRα): 3.7
Derived Efficacy (fold induction) (human VDR [6]): 9.9267 fold induction

O=C(NC(=O)c1c(F)cccc1F)Nc1ccc(OC(F)(F)C(F)OC(F)(F)F)c(Cl)c1 (stereo not shown) [Novaluron]
pattern of VDR:coregulator interaction facilitated by the ligand [1]: Interaction between VDR:SRC-1 only in the absence of RXR
% Induction, pMSRC-1NR + EpSG5 (VDR:SRC-1): 0.9
Activity (human VDR [4]): Active
AC50 (human VDR [4]; read-out: Derived AC50 (Transient transactivation assay)): 37.4 µM
AC50 [5]: 23.4 µM
Derived Efficacy (fold induction) (human VDR [6]): 16.3718 fold induction

Cc1cc(Cc2cc(C)cc(C(C)(C)C)c2O)c(O)c(C(C)(C)C)c1 [2,2′-methylenebis(6-tert-butyl-4-methylphenol)]
% Induction, pMSRC-1NR + EpSG5 (VDR:SRC-1; [9]): 8.2%
AC50 (human VDR [4]; [10]): 4.62 µM
AC50 (human VDR [4]; [11]): 9.32 µM
Activity (human VDR [4]; [7]): Active
AC50 [5]: 32.1 µM
Derived Efficacy (fold induction) (human VDR [6]): 29.470 fold induction

Cadmium reference solution
Fold Change (pMNCoR + EpSG5) (VDR:NCoR): 0.7
% Induction (pMSRC-1NR + RXRα) (VDR:SRC-1): 0.9
% Induction, pMSRC-1NR + EpSG5 (VDR:SRC-1): 1.3
Activity (human VDR [3]): Active
Derived Efficacy (fold inhibition) (human VDR [3]): 76.1807 fold inhibition
IC50 (human VDR [3]): 0.198 µM
% Induction (pMRXRα + EpSG5) (VDR:RXRα): 23.7
% Induction (pMRXRα + SRC- 1) (VDR:RXRα): 16

Cl.Nc1c2ccccc2nc2ccccc12 [9 Aminoacridine monohydrochloride]
Fold Change (pMNCoR + EpSG5) (VDR:NCoR; agonists, -RXR, fold induction compared to DMSO, 9 aminoacridine at 50 μM in Fig 5): 67.7 fold
% Induction, pMSRC-1NR + EpSG5 (VDR:SRC-1; [9]): 14.4%
AC50 (human VDR [4]; [10]): 10.9 µM
AC50 (human VDR [4]; [11]): 12.6 µM
Activity (human VDR [4]; [7]): Active
AC50 [5]: 4.25 to 11.1 µM
Derived Efficacy (fold induction) (human VDR [6]): 44.5165 fold induction

Nc1nc(N)c2nc(CNc3ccc(C(=O)N[C@@H](CCC(=O)O)C(=O)O)cc3)cnc2n1 [reference compound]
pattern of VDR:coregulator interaction facilitated by the ligand [1]: did not facilitate VDR:RXR or VDR:SRC-1 interactions under any condition
AC50 (human VDR [4]; Derived AC50 (Transient transactivation assay)): 33.7 µM
Derived Efficacy (fold induction) (human VDR [4]; [8]): 16.3718 fold induction
AC50 [5]: 11.8 µM
Activity (human VDR [6]): Active
